Reference: US11236107B2, “Crystal of tricyclic compound” (Chia Tai Tianqing Pharmaceutical Group Co., Ltd., priority 2017, dated 2022)

What was measured:
[1] = target: T1, recombinant human IDO1 enzyme (Homo sapiens, UniProt P14902); assay: In vitro hIDO1 enzyme activity test (NFK Green fluorescence); assay type: biochemical; conditions: recombinant human IDO1, L-tryptophan substrate, pH 6.5, NFK Green readout
T1 construct: purchased NTRC NTRC-hIDO-10K
Protocol: Experimental Example 1: In Vitro hIDO1 Enzyme Activity Test
The change of NFK production was detected by using the NFK Green™ fluorescent molecule, which is the metabolite of the IDO1 enzyme, and the IC50 value of the compound was used as an index, to evaluate the inhibitory effect of the compound of formula I on the recombinant human IDO1 enzyme.
The compound of formula I was diluted to 1 mM with DMSO, and then diluted 3-fold in duplicate wells, with 10 gradients. 48 μL of 50 mM phosphate buffer (pH 6.5) was transferred and added to the compound plate via Bravo automated liquid handling platform. 2 μL of the diluted solution of the compound in DMSO was then added thereto and mixed, followed by transferring 10 μL thereof to an enzyme reaction plate.
The IDO1 enzyme was diluted to 20 nM in the reaction buffer (50 mM phosphate buffer (pH 6.5), 0.1% Tween-20, 2% glycerol, 20 mM ascorbic acid, 20 μg/mL catalase and 20 μM methylene blue), 20 μL of which was transferred to an enzyme reaction plate and incubated at 23° C. for 30 min. The reaction was started by adding 10 μL of 400 μM L-tryptophan substrate and incubated at 23° C. for 90 min. 10 μL of NFK Green™ fluorescent dye was added thereto, and the plate was sealed with the microplate sealing film, incubated at 37° C. for 4 h, and then read on Envision Multimode Microplate Reader (Ex 400 nm/Em 510 nm). […]

[2] = target: T2, IDO1 enzyme in Hela cells (Homo sapiens, UniProt P14902); assay: hIDO1 cytological activity assay (kynurenine in Hela cells by LC-MS); assay type: cell-based; conditions: IDO1 induced with 100 ng/mL recombinant human γ-interferon, 20 h, read-out: hIDO1 Cytological active IC50
T2 construct: recombinant human γ-interferon was added to a final concentration of 100 ng/mL to induce IDO1 expression; endogenous in cells; host or cells: Hela cells
Protocol: Experimental Example 2: hIDO1 Cytological Activity Assay
The change of kynurenine in Hela cells was detected by the LC-MS method, and the IC50 value of the compound was used as an index to evaluate the inhibitory effect of the compound of formula I on IDO1 enzyme.
The culture medium, trypsin and DPBS were preheated in a 37° C. water bath. The culture medium for cell culture was sucked out and washed with 10 mL of DPBS; the preheated trypsin was added into the culture flask, and the flask was rotated to allow the trypsin to uniformly cover it, and then placed in a 37° C., 5% CO2 incubator to digest for 1-2 min; in each T150, cells were dispersed with 10-15 mL of the culture medium, centrifuged at 800 rpm for 5 min, and then resuspended with 10 mL of medium; 1 mL of cell suspension was pipetted and cells were counted with Vi-cell; Hela cells were diluted with the culture medium to 5×10^5/mL, 80 μL of the solution was added to a 96-cell plate, and cultured at 37° C. for 5-6 h in a 5% CO2 incubator.
The compound was diluted to 1 mM with DMSO, and then diluted 3-fold in duplicate wells, with 9 gradients. […]
10 μL of recombinant human γ-interferon was added to a final concentration of 100 ng/mL to induce IDO1 expression. […] The content of kynurenine was detected by LC-MS. […]

T2 sequence (P14902 whole entry): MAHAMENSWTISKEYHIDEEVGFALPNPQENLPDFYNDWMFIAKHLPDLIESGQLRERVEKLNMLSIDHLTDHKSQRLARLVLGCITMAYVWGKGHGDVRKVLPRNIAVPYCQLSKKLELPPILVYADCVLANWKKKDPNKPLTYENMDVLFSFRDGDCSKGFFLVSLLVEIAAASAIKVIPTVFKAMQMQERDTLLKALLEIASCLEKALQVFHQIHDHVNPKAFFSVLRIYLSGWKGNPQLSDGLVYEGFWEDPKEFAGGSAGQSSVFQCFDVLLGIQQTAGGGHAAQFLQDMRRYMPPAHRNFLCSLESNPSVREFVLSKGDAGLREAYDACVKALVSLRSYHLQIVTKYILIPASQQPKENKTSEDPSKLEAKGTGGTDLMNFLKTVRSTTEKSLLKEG
T1 sequence (P14902 whole entry): as above

IC50 [1]: 48 nM
IC50 [2]: 74.9 nM
SMILES: FC1(F)CCC([C@H]2c3sccc3-c3cncn32)CC1 [Compound of formula I, (S)-8-(4,4-difluorocyclohexyl)-8H-thieno[3,4]pyrrolo[1,5-a]imidazole]
